# Patent US12410220B2, “Modulation of mammalian cell lineage by synthetic immodulins” (priority 2021, dated 2025)
# Marks after values point to notes of the source that are not given here. Peptide text beside a SMILES is read from it.
# T1: AA111-228 DNA-binding domain of RXR-alpha (RXRa-DBD) (Homo sapiens, UniProt P19793)
# T1 construct: purchased Abcam, Cambridge, MA
# T1 sequence (P19793 111-228): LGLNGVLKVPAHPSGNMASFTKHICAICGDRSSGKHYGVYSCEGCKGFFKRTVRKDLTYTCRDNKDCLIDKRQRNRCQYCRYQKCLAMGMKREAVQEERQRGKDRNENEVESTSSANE
# B1: CSF1: colony stimulating factor 1; growth factor class (protein, UniProt P09603 33-554, looked up)
# Macrophage colony-stimulating …: EEVSEYCSHMIGSGHLQSLQRLIDSQMETSCQITFEFVDQEQLKDPVCYLKKAFLLVQDIMEDTMRFRDNTPNAIAIVQLQELSLRLKSCFTKDYEEHDKACVRTFYETPLQLLEKVKNVFNETKNLLDKDWNIFSKNCNNSFAECSSQDVVTKPDCNCLYPKAIPSSDPASVSPHQPLAPSMAPVAGLTWEDSEGTEGSSLLPGEQPLHTVDPGSAKQRPPRSTCQSFEPPETPVVKDSTIGGSPQPRPSVGAFNPGMEDILDSAMGTNWVPEEASGEASEIPVPQGTELSPSRPGGGSMQTEPARPSNFLSASSPLPASAKGQQPADVTGTALPRVGPVRPTGQDWNHTPQKTDHPSALLRDPPEPGSPRISSLRPQGLSNPSTLSAQPQLSRSHSSGSVLPLGELEGRRSTRDRRSPAEPEGGPASEGAARPLPRFNSVPLTDTGHERQSEGSFSPQLQESVFHLLVPSVILVLLAVGGLLFYRWRRRSHQEPQRADSPLEQPEGSPLTQDDRQVELPV
# How the values were obtained:
# THP1-Dual monocytes = assay: THP1-Dual differentiation assay, immX3 peptide plus helper or inhibitor molecule; type: cell-based, human; conditions: immX3 peptide (330 nM) in all samples plus helper at the concentration given; immX3 with buffer = 100.0
# Experimental: Mammalian cell differentiation assays using THP1-Dual monocytes reporter cell line (Invivogen Inc, San Diego, CA) seeded at 2×10e5 cells per well in 96-well plates and cultured at 37 degrees C. in RPMI-1640 growth medium plus 10% fetal bovine serum and 1% penicillin/streptomycin, then treated for 24 hours with either 100 ng/ml Phorbol 12-myristate 13-acetate (PMA protocol; Cayman Chemical Company, Ann Arbor, MI) or a mixture of IL-4 (100 ng/ml), GM-CSF (100 ng/ml), TNF-alpha (20 ng/ml) and ionomycin (200 ng/ml) (Cytokine protocol; Peprotech, Rocky Hill, NJ). Peptide (330 nM) was then added, and incubation continued for an additional 24 hours. Culture supernatants were then assayed for CCL22. Plates with adherent cells were washed with PBS and assayed for immunoreactivity of surface markers such as CD169, Clec9a, Clec12a or MHCII using fuorescent tag- or biotin-labeled anti-human antibodies purchased from Miltenyi Biotec (Auburn, CA) and a relevant secondary detection reagent, or by fluorescence counts.
# The THP1-Dual cell differentiation assay was carried out as described above in Example 2, using immX3 peptide (330 nM) in all samples plus the indicated helper or inhibitor molecule. AU=arbitrary ELISA units. **p<0.01.
# [1] = Ferric iron-binding assay of biotinylated immodulin peptides; conditions: N-terminally biotinylated peptide, 400 ng per well, 60 min room temperature; immX3AVD = 100
# From the text: N-terminally biotinylated versions of the peptides listed below were used in ferric iron-binding assays involving either an Alexa488-labeled streptavidin protocol (Binding Assay 1) or FITC-NTA assay (Binding Assay 2). Fluorescence was standardized to binding with immX3AVD control peptide (100) and the average of multiple experiments using both protocols is shown. P values are shown relative to the control immX3AVD peptide (**<0.05). D-amino acid residues are underlined in the sequences and the extension tripeptide of immX peptides is shown in bold font. Binding Assay 1 was done as follows: NTA coated 96-well plates (G-Biosciences, St. Louis, MO) were charged with ferric chloride and contacted with equimolar biotinylated peptide: streptavidin-A488 complex (400 ng peptide per well) for 60 min at room temperature, washed with phosphate-buffered saline (PBS) and read at 525 nm in a fluorescence counter. Binding Assay 2 was done as follows: Streptavidin coated 96-well plates (G-Biosciences, St. Louis, MO) were contacted with 400 ng peptide per well in PBS buffer for 60 minutes at room temperature, washed in PBS, then contacted with FITC-NTA (TRC, Toronto, Canada) complexed with equimolar ferric chloride (10× molar equivalent per well) for 60 min at room temperature, washed with PBS and read at 525 nm in a fluorescence counter.
# [2] = Experiment 4D binding to FITC-labelled hyaluronic acid; conditions: biotinylated peptide 1 ug/well; 1 ug FITC-labelled hyaluronic acid, 90 minutes
# Experimental: (§1) Streptavidin-coated 96-well plates (G-Biosciences, St. Louis, MO) were pre-treated with biotinylated peptides [see Example 1 for key] at 1 ug/well, at room temperature for 60 minutes. The plate was washed with PBS buffer and then 1 ug FITC-labelled heparin or hyaluronic acid in 100 uL PBS buffer was added per well (all tests in quadruplicate). Incubation proceeded for 90 minutes at room temperature, followed by two PBS washes. The plate was read in a standard laboratory fluorometer (488/525 nm exitation/[…]) and the counts normalized for immX3 peptide binding=100. Values statistically above background are shown in bold font. **p<0.05 versus immX3AVD.
# [3] = Experiment 4D binding to FITC-labelled heparin; conditions: biotinylated peptide 1 ug/well; 1 ug FITC-labelled heparin, 90 minutes
# Experimental: as §1
# [4] = system: HFF-1 human fibroblast cell line; assay: Collagen-1 ELISA in HFF-1 dermal fibroblasts; type: cell-based; conditions: peptide 2 uM, 72 hour incubation
# Experimental: Immodulin peptides have potential untility in the field of cosmetics. HFF-1 human fibroblast cell line was obtained from the American Type Culture Collection (ATCC). Cells were grown in a T-75 flask in DMEM Medium containing 10% fetal bovine serum and penicillin-streptomycin at 37° C. in a humidified, 5% CO2 incubator. Cells (100 µl, 2,000 cells/well) were plated in a 96-well plate and incubated overnight at 37° C. in a humidified, 5% CO2 incubator. Next day, 10 µl/well of compounds were added (quadruplicate wells). After 72 hour incubation with the compound, supernatants were collected for Collagen-1 ELISA assay and cell viability was measured in a luminometer after the addition of 100 IL/well CellTiterGlo reagent (Promega Inc, Madison, WI) as recommended by the manufacturer. Collagen stimulating activity of immodulin peptides in HFF-1 dermal fibroblasts: Peptides were added to cells at 2 uM. COL1 immunoreactivity was measured in the supernatants of cultured cells by ELISA using a rabbit monoclonal anti-COL1 primary antibody (Abcam, Cambridge, MA). Control (buffer) value of immunoreactivity was set to 100.
# [5] = biological target: T1, AA111-228 DNA-binding domain of RXR-alpha (RXRa-DBD); assay: Experiment 4A binding to RXRa-DBD; conditions: 1 ug/well RXRa-DBD; 800 ng/well SA488-labelled peptide, 60 min; background subtracted
# Experimental: Experiment 4A. Binding of immodulin peptides to AA111-228 DNA-binding domain of RXR-alpha (RXRa-DBD). 1 ug/well recombinant RXRa-DBD (Abcam, Cambridge, MA) was adsorbed to wells of a 96-well plate for 60 minutes at room temperature, then blocked with 200 uL 1% bovine serum albumin (BSA) in PBS buffer overnight. Plate was washed and 800 ng/well Streptavidin-Alexa 488 conjugate (SA488)-labelled immX peptide was added. The plate was incubated for 60 min at room temperature, washed and counted in a standard fluorometer (excitation/emission 485/525 nm). Background (buffer alone) was subtracted.
molecule,measurement,setting,value
Hyaluronic acid [reference compound],CD169 (AU),THP1-Dual monocytes,110.5 ± 10.2 AU
CSCC[C@H](NC(=O)[C@H](CCCCN)NC(=O)[C@H](CS)NC(=O)[C@H](CCC(N)=O)NC(=O)[C@H](CCCCN)NC(=O)[C@H](CC(C)C)NC(=O)[C@H](CC(N)=O)NC(=O)[C@H](Cc1ccc(O)cc1)NC(=O)[C@H](CC(C)C)NC(=O)CNC(=O)[C@H](Cc1c[nH]cn1)NC(=O)[C@@H](N)CCCCN)C(=O)N[C@@H](CO)C(=O)N[C@@H](CC(C)C)C(=O)N[C@@H](CC(N)=O)C(=O)NCC(=O)N[C@@H](CCC(N)=O)C(=O)N[C@@H](CCCNC(=N)N)C(=O)NCC(=O)N[C@@H](CCC(=O)O)C(=O)N[C@@H](CS)C(=O)N[C@@H](Cc1c[nH]c2ccccc12)C(=O)O [imm2],"Ferric iron binding, fluorescence standardized to immX3AVD control peptide (100), Avg ± SD",[1],1.6 ± 0.8**
same,"Hyaluronate binding, counts normalized for immX3 peptide binding=100",[2],3.1 ± 9.8
same,"Heparin binding, counts normalized for immX3 peptide binding=100",[3],27.4 ± 22.9
same,"COL1 immunoreactivity in supernatants, control (buffer) set to 100",[4],109
same,"Fluorescence, binding to RXRa-DBD",[5],2±38
CSCC[C@H](NC(=O)[C@H](CO)NC(=O)[C@@H](NC(=O)[C@H](CCC(=O)O)NC(=O)[C@H](CS)NC(=O)[C@H](CCC(N)=O)NC(=O)[C@H](CCCNC(=N)N)NC(=O)[C@H](CO)NC(=O)[C@H](Cc1c[nH]cn1)NC(=O)[C@H](Cc1ccc(O)cc1)NC(=O)[C@H](Cc1ccccc1)NC(=O)CNC(=O)[C@H](CC(N)=O)NC(=O)[C@@H](N)CCCCN)[C@@H](C)O)C(=O)N[C@@H](CC(=O)O)C(=O)NCC(=O)N[C@@H](CCC(=O)O)C(=O)N[C@@H](C)C(=O)NCC(=O)N[C@@H](CC(C)C)C(=O)N[C@@H](CS)C(=O)N[C@@H](Cc1c[nH]c2ccccc12)C(=O)O [imm1] (H-KNGFYHSRQCETSMDGEAGLCW-OH; N-terminus and C-terminus assumed),"Ferric iron binding, fluorescence standardized to immX3AVD control peptide (100), Avg ± SD",[1],2.5 ± 1.6**
same,"COL1 immunoreactivity in supernatants, control (buffer) set to 100",[4],98
same,"Fluorescence, binding to RXRa-DBD",[5],670±85
GM-CSF: granulocyte-macrophage colony-stimulating factor; growth factor class,CD169 (AU),THP1-Dual monocytes,147.0 ± 15.3** AU
Leptin: Growth factor class,CD169 (AU),THP1-Dual monocytes,103.3 ± 11.6 AU
Transferrin: Fe-binding protein,CD169 (AU),THP1-Dual monocytes,126.8 ± 9.3** AU
B1,CD169 (AU),THP1-Dual monocytes,108.0 ± 32.3 AU
